Assay results from US12084521B2, “TLR9 inhibitors to suppress inflammatory response to pathogens” (University Of Maryland, Baltimore, priority 2018, dated 2024).
Entries after “also recorded” stand apart in the source; their conditions may differ. No end group written: not given here.

Key:
myDDosome = details: BMDM pretreated with CPDP; MyD88 IP, IRAK4 blot
Protocol: Four million BMDMs per well were plated in 6-well plates and treated with CPDP for 30 minutes prior to stimulation with ODN 1668 for 90 minutes. Cells were lysed in 600 p L of buffer containing 20 mM HEPES (pH 7.4), 150 mM NaCl, 10 mM NaF, 2 mM Na3VO4, 1 mM EDTA, 1 mM EGTA, 0.5% Triton X-100, 0.1 mM DTT, and protease inhibitor cocktail (Roche™). Cell extracts were incubated overnight with 1 μg of anti-mouse MyD88 antibody (AF3109) (R&D Systems™, followed by a 4-hour incubation with 20 μL protein G Sepharose beads (ThermoFisherm Scientific). The beads were then washed 3 times with 500 μL of lysis buffer and boiled in 60 μL of Laemmli sample buffer (Bio-Rad™). Cell extracts were electrophoresed on 10% acrylamide gel by SDS-PAGE and transferred to PVDF membrane (Bio-Rad™). Rabbit anti-MyD88 IgG was purchased from Cell Signaling™. Mouse anti-IRAK4 IgG was obtained from Abcam™. Alkaline phosphatase-conjugated secondary antibodies against mouse and rabbit IgG were purchased from Cell Signaling™. The stabilized substrate for alkaline phosphatase was from Promega™.
TLR stimulation causes formation of myDDosome, a signaling complex composed through interactions of IRAK and MyD88 death domains. To test if peptides inhibit myDDosome formation, MyD88 was immunoprecipitated from lysates of ODN-stimulated BMDM and the precipitates analyzed for IRAK4 presence. BMDM were lysed and lysates immunoprecipitated with anti-MyD88 Ab and immune complexes assessed with anti-IRAK4 Ab 3 hours after cell treatment with ODN 1668.

TLR9 signaling [1] = test: Plasma cytokines after i.p. ODN 1668 in mice; assay type: in vivo, C57BL/6J mice; details: peptide 200 nmol/mouse i.p.; ODN 1668 7.86 nmol/mouse
Protocol: Systemic cytokine levels were measured in plasma samples obtained 1, 3, and 5 hours after intraperitoneal (i.p.) administration of 7.86 nmol (50 μg) of ODN 1668 or 67 nmol of Pam3C per mouse, using ELISA kits from Biolegend™ Inc. CPDP were dissolved in PBS and administered i.p. at the dose of 200 nmol per mouse 1 hour before administration of a TLR agonist. For survival experiments, mice were sensitized to TLR9 agonists by i.p. injection of 20 mg of D-Gal 30 minutes before administration of peptides or PBS. ODN 1668 was used at the doses of 3.93 or 7.86 nmol/mouse (25 or 50 μg/mouse) 1.5 hours after D-Gal. Animal survival was monitored for 50 hours. All agents were administered i.p. in 500 μL volume of PBS. Animals had free access to food and water during the observation period. All animal experiments were conducted in accordance with the national guidelines for the care and use of laboratory animals under a protocol that was approved by the UMB IACUC.
To test the in vivo efficacy and specificity of 9R34-ΔN, C57BL/6J mice were mock-treated or treated i.p. with a single dose of inhibitory or control peptide (200 nmol/mouse) and challenged with TLR9 agonist ODN 1668 (7.86 nmol/mouse) or TLR2/1 agonist Pam3C (67 nmol/mouse) 1 hour later. Plasma concentrations of TNFα and IL-12-p40 were measured 1, 3, and 5 hours after the challenge. Both TLR agonists increased concentrations of TNFα and IL-12-p40 in 1 hour samples from below the limit of detection to about 1.2 and about 6 ng/mL in the case of ODN 1668, and to 0.12 ng/mL and 1 ng/mL after treatment with Pam3C.
Plasma TNFα and IL-12-p40 levels following intraperitioneal administration of ODN 1668 to C57Bl/6J mice in peptide-pretreated and control mice are shown in FIG. 14A and FIG. 14B. Data shown in these figures represent the means±SEM obtained in at least three independent experiments. The statistical significance of changes in cytokine concentrations was determined by a two-way ANOVA test; *p<0.001.

TLR9 signaling [2] = test: ODN 1668-induced cytokine mRNA expression in BMDM (quantitative real time PCR); assay type: cell-based, mouse; details: BMDM; for inhibition of TLR9 signaling (ODN 1668-induced cytokine mRNA, overall): peptide 10, 20 or 40 μM, ODN 1668 1 μM; for TNFα mRNA expression / IL-12-p40 mRNA expression / IL-10 mRNA expression: peptide 10, 20 or 40 μM 30 min before ODN 1668 (1 μM), normalized to HPRT; for TNFα mRNA expression: 1 hour after stimulation; for IL-12-p40 mRNA expression / IL-10 mRNA expression: 1 hour
Protocol: The cDNA obtained was amplified with gene-specific primers for mouse HPRT, TNFα, IL-10, IL-12-p40, or IL-6 and Fast SYBR Green™ master mix (Applied Biosystemsm) as previously described.
Mouse BMDMs were incubated in the presence of a 10, 20 or 40 μM decoy peptide for 30 minutes prior to stimulation with ODN 1668 (1 μM). […] Data represent the means±SEM of at least three independent experiments. The statistical significance of changes in cytokine mRNA was determined by a one-way ANOVA test; *p<0.001. Peptides 9R3 and 9R34 have overlapping sequences (see Table 1).
To investigate inhibition of TLR9 signaling by 9R34 analogues, the following work was performed. Mouse BMDMs were incubated in the presence of a 10, 20 or 40 μM decoy peptide for 30 minutes prior to stimulation with ODN 1668 (1 μM). Cytokine mRNA expression was measured 1 hour after ODN 1668 challenge and normalized to the expression of HPRT. See also Table 1. Data represent means±SEM of at least three independent experiments.

TLR9 signaling [3] = test: ODN 1668-induced cytokine secretion in BMDM supernatants (ELISA); assay type: cell-based, mouse; details: peptide 40 μM; 5 hour supernatants; ODN 1668 1 μM
Protocol: Mouse TNFα and IL-12-p40 concentrations were measured in supernatants using ELISA kits from Biolegend™, Inc.
BMDMs were incubated in the presence of a decoy peptide for 30 minutes prior to stimulation with ODN 1668 (1 μM). The statistical significance of changes in cytokine levels was determined by the one-way ANOVA test; *p<0.01.

Sequence | inhibition of TLR9 signaling (ODN 1668-induced cytokine mRNA, overall) (TLR9 signaling [2]) | TNFα mRNA expression (TLR9 signaling [2]) | IL-12-p40 mRNA expression (TLR9 signaling [2]) | also measured
DKTQSAVADWVYNE (Synthetic peptide 9R2) | did not inhibit TLR9 | – | – | ODN 1668-induced myDDosome formation (myDDosome): not; ODN 1668-induced plasma cytokine levels (TNFα, IL-12-p40) (TLR9 signaling [1]): did not significantly reduce
HTDRVSGLLRASFL (Synthetic peptide 9R6) | some inhibitory activity; also recorded: weakly inhibited | partial activity | partial activity | –
RGQLEECRGRWALR (also: antennapedia vector attached) [Peptide 9R3, tested as CPDP with antennapedia vector] | inhibit TLR9 signaling | significantly suppressed | significantly suppressed | IL-10 mRNA expression (TLR9 signaling [2]): significantly suppressed
RYVRLRQRLCRQS (Synthetic peptide 9R9) | inhibit TLR9 signaling; also recorded: inhibited signaling weaker than 9R34 or 9R11 | significantly suppressed | significantly suppressed | production/secretion of TNFα (TLR9 signaling [3]): did not inhibit significantly; secretion of IL-12-p40 (TLR9 signaling [3]): reduced secretion; IL-10 mRNA expression (TLR9 signaling [2]): significantly suppressed
GRWALRLCLE (Synthetic peptide 9R34-delta-C) [Peptide 9R34-ΔC] | as potent as the parent peptide | – | – | –
SPDGRRSRYVR (Synthetic peptide 9R8) | some inhibitory activity | – | – | –
GRWALRACLEERD (Synthetic peptide 9R34-delta-L1) [Peptide 9R34-ΔL1] | inhibited TLR9 signaling less potently | – | – | –
LEERDWLPGKTLFE (Synthetic peptide 9R4) | did not inhibit | – | – | –
GRWALRACAEERD (Synthetic peptide 9R34-delta-L2) [Peptide 9R34-ΔL2] | inhibited TLR9 signaling less potently | – | – | –
GRWALRLSLEERD (Synthetic peptide 9R34-C/S) | as potent as the parent peptide | – | – | –
